Results: the supplement of paper PMC10307832

Legend:
Test in all cases: relative viability (nuclei count vs DMSO), 5 days (fraction); higher = more cells survive
[1] = compound: CCN(CCO)CCCC(C)Nc1ccnc2cc(Cl)ccc12 [Hydroxychloroquine] + Nc1ncn([C@H]2C[C@H](O)[C@@H](CO)O2)c(=O)n1 [Decitabine] (partner 2 µM)
How it was run: (§1)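 Lung cancer cell lines were seeded in 1536-well plates and dosed by pin tool the next day, with either a single drug or a fixed anchor-drug dose combined with five library-drug doses (not always all listed) spaced in √10 steps. Five days later, one step fixed the cells and stained their nuclei (final 0.05% Triton X-100, 1% formaldehyde, 1 ug/ml Hoechst), and nuclei were counted on 4× images. Relative viability is the nuclei count in treated wells divided by the count in vehicle wells, and each value is the median of duplicate plates.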

[2] = compound: CCN(CCO)CCCC(C)Nc1ccnc2cc(Cl)ccc12 [Hydroxychloroquine] + CS(=O)(=O)CCNCc1ccc(-c2ccc3ncnc(Nc4ccc(OCc5cccc(F)c5)c(Cl)c4)c3c2)o1 [Lapatinib] (partner 2 µM)
How it was run: as §1

[3] = compound: CCN(CCO)CCCC(C)Nc1ccnc2cc(Cl)ccc12 [Hydroxychloroquine] + Cc1cc(Nc2cc(N3CCN(C)CC3)nc(Sc3ccc(NC(=O)C4CC4)cc3)n2)n[nH]1 [Tozasertib] (partner 0.1 µM)
How it was run: as §1

[4] = compound: CCN(CCO)CCCC(C)Nc1ccnc2cc(Cl)ccc12 [Hydroxychloroquine] + C[C@@H](Oc1cc(-c2cnn(C3CCNCC3)c2)cnc1N)c1c(Cl)ccc(F)c1Cl [Crizotinib] (partner 1 µM)
How it was run: as §1

Cell Line	relative viability ([1]; first compound 0.5 µM)	relative viability ([1]; first compound 1.581 µM)	relative viability ([1]; first compound 5 µM)	relative viability ([1]; first compound 15.81 µM)	relative viability ([1]; first compound 50 µM)	relative viability ([2]; first compound 0.5 µM)	relative viability ([2]; first compound 1.581 µM)	relative viability ([2]; first compound 5 µM)	relative viability ([2]; first compound 15.81 µM)	relative viability ([2]; first compound 50 µM)	relative viability ([3]; first compound 0.5 µM)	relative viability ([3]; first compound 1.581 µM)	relative viability ([3]; first compound 5 µM)	relative viability ([3]; first compound 15.81 µM)	relative viability ([3]; first compound 50 µM)	relative viability ([4]; first compound 0.5 µM)	relative viability ([4]; first compound 1.581 µM)	relative viability ([4]; first compound 15.81 µM)	relative viability ([4]; first compound 50 µM)	relative viability ([4]; first compound 5 µM)
LC-2-ad	0.732	0.777	0.776	0.744	0.854	0.977	0.958	0.979	0.999	1.02	0.447	0.478	0.415	0.463	0.455	0.44	0.426	0.473	0.547	–
LCLC-97TM1	0.217	0.247	0.276	0.274	0.189	0.926	1.27	0.928	1.1	1.03	0.282	0.254	0.229	0.509	0.26	0.379	0.259	0.449	0.481	0.4
LK-2	0.308	0.297	0.36	0.268	0.284	0.918	0.947	0.883	1.03	1.04	0.176	0.167	–	0.176	0.154	0.246	–	0.181	0.197	0.198
LOU-NH91	0.761	0.732	0.833	0.83	0.824	0.759	0.591	0.776	0.754	0.738	0.651	0.6	0.687	0.692	0.723	0.726	0.727	0.739	0.741	0.742
LU99A	0.864	0.795	0.877	1.01	1.01	1.05	0.937	0.871	1.08	1.01	0.243	0.229	0.281	0.256	0.284	0.566	0.533	0.606	0.66	0.593
LXF-289	0.411	0.395	0.338	0.366	0.357	0.868	0.906	0.911	0.848	0.891	0.172	0.17	0.2	0.176	0.193	0.838	0.773	0.822	0.853	0.803
NCI-H23	0.321	0.294	0.288	0.288	0.305	1.08	0.915	0.957	1.22	1.1	0.56	0.337	0.41	0.65	0.424	0.473	0.537	0.446	0.603	0.579
NCI-H322M	0.66	0.698	0.732	0.665	0.637	0.557	0.642	0.554	0.619	0.634	0.506	0.478	0.484	0.547	0.49	0.996	0.922	0.927	1.02	0.894
NCI-H358	0.208	0.203	0.217	0.21	0.201	0.487	0.432	0.412	0.486	0.476	0.097	0.096	0.115	0.108	0.0849	0.515	0.579	0.516	0.591	0.587
NCI-H460	0.431	0.528	0.441	0.563	0.559	1.03	1.05	0.778	1.55	1.5	0.515	0.4	0.377	0.413	0.516	0.985	0.91	0.745	0.952	0.938
NCI-H520	0.532	0.549	0.513	0.491	0.526	0.934	0.898	0.857	0.958	0.978	0.45	0.39	0.442	0.465	0.41	0.894	0.826	0.752	0.993	0.86
NCI-H596	0.954	1.02	1.12	0.966	0.993	0.969	0.995	1.04	1.05	1	1.16	0.994	0.858	0.865	0.987	0.918	1.04	1.05	1.01	1.05
NCI-H647	0.369	0.438	0.446	0.388	0.444	1.22	1.11	1.09	1.26	1.26	0.263	0.357	0.278	0.346	0.272	1.23	1.07	1.12	1.33	1.21
NCI-H650	0.347	0.31	0.361	0.31	0.307	0.894	0.862	–	0.892	1.09	0.736	0.692	0.681	0.763	0.708	0.787	0.63	0.675	0.835	–
NCI-H661	0.584	0.587	0.564	0.528	0.567	0.433	0.426	0.43	0.467	0.465	0.358	0.32	0.355	0.397	0.349	0.939	0.962	0.927	1.09	1.05
NCI-H727	1.02	0.93	0.839	0.829	0.693	0.893	0.842	0.699	0.814	0.931	0.646	0.509	0.597	0.561	0.593	0.839	0.815	0.908	0.885	0.804
NCI-H838	0.472	0.458	0.437	0.429	0.452	1.07	1.02	1.03	0.923	1.12	0.234	0.241	0.23	0.281	0.281	0.805	0.8	0.829	0.974	0.823

Cell Line	relative viability ([1]; first compound 0.5 µM)	relative viability ([1]; first compound 1.581 µM)	relative viability ([1]; first compound 5 µM)	relative viability ([1]; first compound 15.81 µM)	relative viability ([1]; first compound 50 µM)	relative viability ([2]; first compound 0.5 µM)	relative viability ([2]; first compound 1.581 µM)	relative viability ([2]; first compound 5 µM)	relative viability ([2]; first compound 15.81 µM)	relative viability ([2]; first compound 50 µM)	relative viability ([3]; first compound 0.5 µM)	relative viability ([3]; first compound 1.581 µM)	relative viability ([3]; first compound 5 µM)	relative viability ([3]; first compound 15.81 µM)	relative viability ([3]; first compound 50 µM)	relative viability ([4]; first compound 0.5 µM)	relative viability ([4]; first compound 1.581 µM)	relative viability ([4]; first compound 15.81 µM)	relative viability ([4]; first compound 50 µM)	relative viability ([4]; first compound 5 µM)
NCI-H1355	0.319	0.344	0.369	0.371	0.338	1.03	0.88	1.02	0.887	1.06	0.616	0.493	0.513	0.557	0.508	1.08	1.01	1.08	1.1	1.11
NCI-H1437	0.56	0.617	0.587	0.562	0.636	0.833	1.05	0.885	0.758	0.845	0.395	0.42	0.426	0.438	0.427	0.824	0.985	0.97	1.03	0.963
NCI-H1650	0.315	0.391	0.419	0.36	0.36	0.844	0.697	0.702	0.75	0.765	0.466	0.318	0.483	0.419	0.346	0.92	0.903	1.01	1.04	0.999
NCI-H1651	0.626	0.649	0.652	0.633	0.509	0.811	0.925	0.729	0.979	0.988	0.845	0.62	0.762	0.65	0.714	0.926	0.884	0.853	0.911	0.83
NCI-H1666	0.707	0.691	0.759	0.792	0.635	0.572	0.483	0.681	0.61	0.538	0.612	0.557	0.658	0.636	0.552	0.872	1.11	0.837	1.14	0.948
NCI-H1734	0.486	0.482	0.459	0.491	0.497	1.13	0.99	0.992	1.05	0.99	0.276	0.297	0.274	0.245	0.31	0.652	0.559	0.582	0.716	0.741
NCI-H1755	0.707	0.644	0.727	0.694	0.656	1.06	0.875	1.02	1	1.02	0.672	0.548	0.569	0.656	0.587	0.983	0.768	0.866	0.879	0.86
NCI-H1915	0.252	0.247	0.273	0.252	0.263	0.958	0.91	1	1.07	1.02	0.425	0.411	0.428	0.464	0.439	0.953	0.935	0.982	1.01	0.937
NCI-H1944	0.4	0.44	0.423	0.483	0.429	0.762	0.755	0.797	0.867	0.967	0.254	0.249	0.232	0.264	0.271	1.07	1.06	1.04	1.19	1.07
NCI-H1975	0.384	0.372	0.378	0.408	0.415	0.989	0.867	0.874	0.891	1.18	0.84	0.695	0.856	0.858	0.847	1.05	1.08	1.06	1.15	0.926
NCI-H1993	0.664	0.635	0.705	0.688	0.606	0.751	0.759	0.899	0.834	0.839	0.514	0.648	0.571	0.569	0.592	0.867	0.948	0.888	0.949	0.803
NCI-H2009	0.353	0.397	0.403	0.353	0.377	0.909	0.826	0.874	0.898	0.893	0.819	0.745	0.784	0.739	0.726	1.02	1	1.05	1.08	1.06
NCI-H2023	0.231	0.209	0.214	0.227	0.211	0.793	0.652	0.691	0.905	0.994	0.35	0.339	0.344	0.36	0.36	0.652	0.565	0.614	0.737	0.619
NCI-H2085	0.623	0.507	0.604	0.606	0.578	0.83	0.666	0.832	0.742	0.873	0.858	0.828	0.799	0.813	0.884	0.904	0.783	0.753	0.847	0.826
NCI-H2087	0.265	0.258	0.242	0.219	0.294	1.11	0.907	0.942	0.946	1.11	0.265	0.22	0.317	0.261	0.284	1.02	0.982	0.864	1.11	1.09
NCI-H2126	0.584	0.547	0.57	0.579	0.566	0.74	0.649	0.761	0.797	0.816	0.821	0.77	0.836	0.887	0.949	1.12	1.06	0.984	1.13	1.11
